Laboratory results: patent publication US8952024B2, “Herbicidal pyrimidone derivatives” (E I du Pont de Nemours and Company, priority 2009, dated 2015)

Experiments:
Assay in all cases: Test B pre-/postemergence plant response
Type in all cases: in vivo
[1] = tested on: woolly cupgrass (Eriochloa villosa)
Summary of the method: (§1)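 Pre-em in loam/sand; post-em at 1–4 leaf (2–18 cm) in peat mix. Solvent + surfactant formulation. Greenhouse 13–15 d; visual % control vs untreated, 0–100.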

[2] = tested on: pigweed (Amaranthus retroflexus)
Summary of the method: as §1

[3] = tested on: sunflower (common oilseed sunflower, Helianthus annuus); conditions: Preemergence
Summary of the method: as §1

[4] = tested on: lambsquarters (Chenopodium album)
Summary of the method: as §1

[5] = tested on: Italian ryegrass (Lolium multiflorum)
Summary of the method: as §1

[6] = tested on: large crabgrass (Digitaria sanguinalis)
Summary of the method: as §1

[7] = tested on: Surinam grass (Brachiaria decumbens)
Summary of the method: as §1

[8] = tested on: nightshade (eastern black nightshade, Solanum ptycanthum); conditions: Preemergence
Summary of the method: as §1

[9] = tested on: goosegrass (Eleusine indica)
Summary of the method: as §1

corn (Zea mays) = tested on: corn (Zea mays)
Summary of the method: as §1

[10] = tested on: galium (catchweed bedstraw, Galium aparine); conditions: Preemergence
Summary of the method: as §1

[11] = tested on: goosegrass (Eleusine indica); conditions: Preemergence, 62 g ai/ha; scale 0 to 100, 0 no effect, 100 complete control
[12] = 250 g ai/ha, Preemergence, 0 to 100 scale
[13] = Postemergence, 31 g ai/ha, scale 0 to 100 (0 no effect, 100 complete control)
[14] = Postemergence, 62 g ai/ha, scale 0 (no effect) to 100 (complete control), 13 to 15 days
[15] = Postemergence, 125 g ai/ha, visual rating after 13 to 15 days, scale 0 (no effect) to 100 (complete control)
[16] = Postemergence, 250 g ai/ha, scale 0 to 100
[17] = Preemergence, 31 g ai/ha, scale 0 to 100 (0 no effect, 100 complete control)
[18] = Preemergence, 62 g ai/ha, scale 0 to 100, 0 no effect, 100 complete control
[19] = Preemergence, 125 g ai/ha, 0 to 100 scale
[20] = 31 g ai/ha, scale 0 to 100 (0 no effect, 100 complete control)
[21] = 62 g ai/ha, scale 0 to 100, 0 no effect, 100 complete control

## 5-[(2-hydroxy-6-oxo-1-cyclohexen-1-yl)carbonyl]-3-phenyl-2-(3-pyridinyl)-4(3H)-pyrimidone [Compound 113]
[1]; [12]
  Plant response rating, Cupgrass, Woolly: 45
[1]; [13]
  Plant response rating, Cupgrass, Woolly: 0
[1]; [14]
  Plant response rating, Cupgrass, Woolly: 50
[1]; [15]
  Plant response rating, Cupgrass, Woolly: 50
[1]; [16]
  Cupgrass, Woolly plant response rating: 65
[1]; [17]
  Plant response rating, Cupgrass, Woolly: 0
[1]; [18]
  Plant response rating, Cupgrass, Woolly: 0
[1]; [19]
  Cupgrass, Woolly plant response rating: 0
[2]; [12]
  Plant response rating, Pigweed: 100
[2]; [13]
  Plant response rating, Pigweed: 75
[2]; [14]
  Plant response rating, Pigweed: 75
[2]; [15]
  Plant response rating, Pigweed: 90
[2]; [16]
  Pigweed plant response rating: 98
[2]; [17]
  Plant response rating, Pigweed: 100
[2]; [18]
  Plant response rating, Pigweed: 100
[2]; [19]
  Pigweed plant response rating: 100
[3]; 250 g ai/ha, 0 to 100 scale
  Plant response rating, Sunflower: 25
[3]; [20]
  Plant response rating, Sunflower: 0
[3]; [21]
  Plant response rating, Sunflower: 0
[3]; 125 g ai/ha, 0 to 100 scale
  Sunflower plant response rating: 0
[4]; [12]
  Plant response rating, Lambsquarters: 100
[4]; [13]
  Plant response rating, Lambsquarters: 0
[4]; [14]
  Plant response rating, Lambsquarters: 65
[4]; [15]
  Plant response rating, Lambsquarters: 65
[4]; [16]
  Lambsquarters plant response rating: 75
[4]; [17]
  Plant response rating, Lambsquarters: 100
[4]; [18]
  Plant response rating, Lambsquarters: 100
[4]; [19]
  Lambsquarters plant response rating: 100
[5]; [12]
  Plant response rating, Ryegrass, Italian: 0
[5]; [13]
  Plant response rating, Ryegrass, Italian: 0
[5]; [14]
  Plant response rating, Ryegrass, Italian: 0
[5]; [15]
  Plant response rating, Ryegrass, Italian: 0
[5]; [16]
  Ryegrass, Italian plant response rating: 20
[5]; [17]
  Plant response rating, Ryegrass, Italian: 0
[5]; [18]
  Plant response rating, Ryegrass, Italian: 0
[5]; [19]
  Ryegrass, Italian plant response rating: 0
[6]; [12]
  Plant response rating, Crabgrass, Large: 95
[6]; [13]
  Plant response rating, Crabgrass, Large: 30
[6]; [14]
  Plant response rating, Crabgrass, Large: 45
[6]; [15]
  Plant response rating, Crabgrass, Large: 45
[6]; [16]
  Crabgrass, Large plant response rating: 60
[6]; [17]
  Plant response rating, Crabgrass, Large: 0
[6]; [18]
  Plant response rating, Crabgrass, Large: 0
[6]; [19]
  Crabgrass, Large plant response rating: 45
[7]; [12]
  Plant response rating, Surinam Grass: 10
[7]; [13]
  Plant response rating, Surinam Grass: 0
[7]; [14]
  Plant response rating, Surinam Grass: 10
[7]; [15]
  Plant response rating, Surinam Grass: 20
[7]; [16]
  Surinam Grass plant response rating: 25
[7]; [17]
  Plant response rating, Surinam Grass: 0
[7]; [18]
  Plant response rating, Surinam Grass: 0
[7]; [19]
  Surinam Grass plant response rating: 0
[8]; 250 g ai/ha, 0 to 100 scale
  Plant response rating, Nightshade: 100
[8]; [20]
  Plant response rating, Nightshade: 80
[8]; [21]
  Plant response rating, Nightshade: 90
[8]; 125 g ai/ha, 0 to 100 scale
  Nightshade plant response rating: 95
[9]; [12]
  Plant response rating, Goosegrass: 60
[9]; [13]
  Plant response rating, Goosegrass: 20
[9]; [14]
  Plant response rating, Goosegrass: 25
[9]; [15]
  Plant response rating, Goosegrass: 35
[9]; [16]
  Goosegrass plant response rating: 35
[9]; [17]
  Plant response rating, Goosegrass: 10
[9]; [19]
  Goosegrass plant response rating: 45
Corn (Zea mays); [12]
  Plant response rating, Corn: 0
Corn (Zea mays); [13]
  Plant response rating, Corn: 0
Corn (Zea mays); [14]
  Plant response rating, Corn: 0
Corn (Zea mays); [15]
  Plant response rating, Corn: 0
Corn (Zea mays); [16]
  Corn plant response rating: 10
Corn (Zea mays); [17]
  Plant response rating, Corn: 0
Corn (Zea mays); [18]
  Plant response rating, Corn: 0
Corn (Zea mays); [19]
  Corn plant response rating: 0
[10]; 250 g ai/ha, 0 to 100 scale
  Plant response rating, Galium: 0
[10]; [20]
  Plant response rating, Galium: 0
[10]; [21]
  Plant response rating, Galium: 0
[10]; 125 g ai/ha, 0 to 100 scale
  Galium plant response rating: 0
[11]
  Plant response rating, Goosegrass: 25
